Data from ChEMBL document CHEMBL3797140, “Acridin-3,6-dialkyldithiourea hydrochlorides as new photosensitizers for photodynamic therapy of mouse leukemia cells” (Bioorg Med Chem, 2016).

What was measured:
[1] = Dark toxicity against mouse NIH/3T3 cells assessed as cell viability after 48 hrs by MTT assay; format: cell-based, NIH3T3
[2] = Dark toxicity against mouse L1210 cells assessed as cell viability after 48 hrs by MTT assay; format: cell-based
[3] = Phototoxicity against mouse NIH/3T3 cells assessed as cell viability preincubated for 1 hr followed by 1.05 J/cm2 UV-A irradiation measured after 48 hrs by MTT assay; format: cell-based; details: NIH3T3, light or radiation study
L1210 = assay: Phototoxicity against mouse L1210 cells assessed as cell viability preincubated for 1 hr followed by 1.05 J/cm2 UV-A irradiation measured after 48 hrs by MTT assay; format: functional, cell-based; details: L1210, light or radiation study

Structure (SMILES)	IC50 at 48 h [1] [µM]	IC50 at 48 h [2] [µM]	IC50 [3] [µM]	IC50 (L1210) [µM]
CCNC(=S)Nc1ccc2cc3ccc(NC(=S)NCC)cc3nc2c1	40.2	12	2.8	0.9
CCCCCNC(=S)Nc1ccc2cc3ccc(NC(=S)NCCCCC)cc3nc2c1	37.5	9.2	3.7	0.6
